Data from PubChem BioAssay AID248 (DTP/NCI, 2004).
Several values for one entry are separate records, joined by “and”; a condition that tells them apart may be missing. Identical values can stand only once. Toxic doses and inconclusive results are not listed.

System: L1210 leukemia ip in BDF1 mice, survival T/C
Test: NCI In Vivo Anticancer Drug Screen. Data for tumor model L1210 Leukemia (intraperitoneal) in B6D2F1 (BDF1) mice
Conditions: endpoint: mean survival time, higher = longer survival
Procedure, shortened: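 Transplanted-tumor mice were given test agent; controls received vehicle only. Survival readings from the two groups were divided (treated over control).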

[1] = dose: 100.0 mg/kg/injection, schedule: Q01DX001 (ip), vehicle: saline
[2] = dose: 200.0 mg/kg/injection, schedule: Q01DX001 (ip), vehicle: saline
[3] = dose: 400.0 mg/kg/injection, schedule: Q01DX001 (ip), vehicle: saline
[4] = dose: 100.0 mg/kg/injection, schedule: Q04DX003 (ip), vehicle: saline
[5] = dose: 200.0 mg/kg/injection, schedule: Q04DX003 (ip), vehicle: saline
[6] = dose: 400.0 mg/kg/injection, schedule: Q04DX003 (ip), vehicle: saline
[7] = dose: 100.0 mg/kg/injection, schedule: Q04DX003 (ip), vehicle: acetone
[8] = dose: 200.0 mg/kg/injection, schedule: Q04DX003 (ip), vehicle: acetone
[9] = dose: 100.0 mg/kg/injection, schedule: Q01DX009 (ip), vehicle: Klucel (hydroxypropylcellulose) (HPC)
[10] = dose: 100.0 mg/kg/injection, schedule: Q04DX003 (ip), vehicle: Klucel (hydroxypropylcellulose) (HPC)
[11] = dose: 200.0 mg/kg/injection, schedule: Q01DX009 (ip), vehicle: Klucel (hydroxypropylcellulose) (HPC)
[12] = dose: 200.0 mg/kg/injection, schedule: Q04DX003 (ip), vehicle: Klucel (hydroxypropylcellulose) (HPC)
[13] = dose: 400.0 mg/kg/injection, schedule: Q01DX009 (ip), vehicle: Klucel (hydroxypropylcellulose) (HPC)
[14] = dose: 400.0 mg/kg/injection, schedule: Q04DX003 (ip), vehicle: Klucel (hydroxypropylcellulose) (HPC)
[15] = dose: 100.0 mg/kg/injection, schedule: Q01DX001 (ip), vehicle: carboxymethylcellulose (CMC)

For `CCOc1ccc(N)c(O)c1`, the T/C (dose: 75.0 mg/kg/injection, schedule: Q01DX001 (ip), vehicle: carboxymethylcellulose (CMC)) was 98 % of control and 102 % of control and the T/C (dose: 150.0 mg/kg/injection, schedule: Q01DX001 (ip), vehicle: carboxymethylcellulose (CMC)) was 93 % of control.

`CC(C)([CH2][Sn]([CH2]C(C)(C)c1ccccc1)([CH2]C(C)(C)c1ccccc1)[CH2]C(C)(C)c1ccccc1)c1ccccc1` was tested, and the T/C (dose: 5.0 mg/kg/injection, schedule: Q01DX009 (sc), vehicle: olive oil, sesame oil, peanut oil) was 102 % of control, the T/C (dose: 5.0 mg/kg/injection, schedule: Q04DX003 (sc), vehicle: olive oil, sesame oil, peanut oil) was 92 % of control and the T/C (dose: 10.0 mg/kg/injection, schedule: Q01DX009 (sc), vehicle: olive oil, sesame oil, peanut oil) was 107 % of control. The T/C (dose: 10.0 mg/kg/injection, schedule: Q04DX003 (sc), vehicle: olive oil, sesame oil, peanut oil) was 92 % of control, the T/C (dose: 20.0 mg/kg/injection, schedule: Q01DX009 (sc), vehicle: olive oil, sesame oil, peanut oil) was 102 % of control and the T/C (dose: 20.0 mg/kg/injection, schedule: Q04DX003 (sc), vehicle: olive oil, sesame oil, peanut oil) was 92 % of control.

For `CCC(C)C(C(=O)OCCC[N+]1(C)CCCCC1)c1ccccc1` (stereo unspecified), the T/C (dose: 12.5 mg/kg/injection, schedule: Q01DX009 (ip), vehicle: saline) was 96 % of control, the T/C (dose: 12.5 mg/kg/injection, schedule: Q04DX003 (ip), vehicle: saline) was 96 % of control and the T/C (dose: 25.0 mg/kg/injection, schedule: Q01DX009 (ip), vehicle: saline) was 100 % of control. The T/C (dose: 25.0 mg/kg/injection, schedule: Q04DX003 (ip), vehicle: saline) was 96 % of control, the T/C (dose: 50.0 mg/kg/injection, schedule: Q01DX009 (ip), vehicle: saline) was 94 % of control and the T/C (dose: 50.0 mg/kg/injection, schedule: Q04DX003 (ip), vehicle: saline) was 94 % of control.

For `COC(=O)C1=C(N)OC(C)(C)C1c1ccc(Cl)cc1` (stereo unspecified), the T/C [1] was 100 % of control, the T/C [2] was 94 % of control and the T/C [3] was 97 % of control.

For `COc1ccc(OC)c(/C=C2\N=C(c3ccccc3)OC2=O)c1`, the T/C (dose: 100.0 mg/kg/injection, schedule: Q01DX001 (ip), vehicle: acetone) was 97 % of control, the T/C (dose: 100.0 mg/kg/injection, schedule: Q01DX009 (ip), vehicle: saline) was 91 % of control and the T/C [4] was 100 % of control. The T/C (dose: 200.0 mg/kg/injection, schedule: Q01DX001 (ip), vehicle: acetone) was 101 % of control, the T/C (dose: 200.0 mg/kg/injection, schedule: Q01DX009 (ip), vehicle: saline) was 94 % of control and the T/C [5] was 96 % of control. The T/C (dose: 400.0 mg/kg/injection, schedule: Q01DX001 (ip), vehicle: acetone) was 92 % of control, the T/C (dose: 400.0 mg/kg/injection, schedule: Q01DX009 (ip), vehicle: saline) was 93 % of control and the T/C [6] was 98 % of control.

In the case of `Cc1cccc(C)c1NC(=O)NS(=O)(=O)c1ccccc1`, the T/C (dose: 50.0 mg/kg/injection, schedule: Q01DX009 (ip), vehicle: saline with Tween-80) is reported as 90 % of control, the T/C (dose: 100.0 mg/kg/injection, schedule: Q01DX009 (ip), vehicle: saline with Tween-80) is reported as 100 % of control and the T/C [7] is reported as 95 % of control. For the same compound, the T/C (dose: 200.0 mg/kg/injection, schedule: Q01DX009 (ip), vehicle: saline with Tween-80) was 95 % of control and the T/C [8] was 103 % of control.

With `O=C(COc1ccc(Cl)cc1)Nc1cc(C(F)(F)F)ccc1Cl` the T/C [9] was 94 % of control, the T/C [10] was 98 % of control and the T/C [11] was 86 % of control. For the same compound, the T/C [12] was 93 % of control, the T/C [13] was 86 % of control and the T/C [14] was 95 % of control.

With `OC(c1nc2ccccc2[nH]1)C(O)c1nc2ccccc2[nH]1` (stereo unspecified) the T/C (dose: 75.0 mg/kg/injection, schedule: Q01DX001 (ip), vehicle: saline) was 102 % of control, the T/C (dose: 150.0 mg/kg/injection, schedule: Q01DX001 (ip), vehicle: saline) was 109 % of control and the T/C (dose: 300.0 mg/kg/injection, schedule: Q01DX001 (ip), vehicle: saline) was 102 % of control.

In the case of `COc1ccc(O)c(/C=N/NC(N)=S)c1`, the T/C [9] is reported as 100 % of control, the T/C [10] is reported as 115 % of control and the T/C [11] is reported as 104 % of control. For the same compound, the T/C [12] was 96 % of control, the T/C [13] was 100 % of control and the T/C [14] was 97 % of control.

In the case of `COC(=O)c1cscc1C=O`, the T/C [1] is reported as 100 % of control, the T/C [7] is reported as 102 % of control and the T/C [4] is reported as 100 % of control. The T/C [2] was 104 % of control, the T/C [8] was 95 % of control and the T/C [5] was 94 % of control. The T/C [3] was 93 % of control, the T/C (dose: 400.0 mg/kg/injection, schedule: Q04DX003 (ip), vehicle: acetone) was 93 % of control and the T/C [6] was 93 % of control.

`COc1cc(C2c3c(cc(OC)c(O)c3OC)C=C(C(=O)O)C2CO)cc(OC)c1O` (stereo unspecified) was tested, and the T/C (dose: 50.0 mg/kg/injection, schedule: Q01DX001 (ip), vehicle: carboxymethylcellulose (CMC)) was 94 % of control, the T/C [15] was 102 % of control and the T/C (dose: 200.0 mg/kg/injection, schedule: Q01DX001 (ip), vehicle: carboxymethylcellulose (CMC)) was 96 % of control. The T/C (dose: 400.0 mg/kg/injection, schedule: Q01DX001 (ip), vehicle: carboxymethylcellulose (CMC)) was 91 % of control.

For `CCCCC[CH2][Sn]([CH2]CCCCC)([CH2]CCCCC)[NH]S(=O)(=O)c1ccc(C)cc1`, the T/C (dose: 100.0 mg/kg/injection, schedule: Q04DX002 (ip), vehicle: saline with Tween-80) was 87 % of control, the T/C (dose: 200.0 mg/kg/injection, schedule: Q04DX002 (ip), vehicle: saline with Tween-80) was 105 % of control and the T/C (dose: 400.0 mg/kg/injection, schedule: Q04DX002 (ip), vehicle: saline with Tween-80) was 94 % of control.

For `COc1ccccc1NC(=O)N(CCCl)N=O`, the T/C (dose: 0.8 mg/kg/injection, schedule: Q01DX001 (ip), vehicle: carboxymethylcellulose (CMC)) was 110 % of control, the T/C (dose: 1.5 mg/kg/injection, schedule: Q01DX001 (ip), vehicle: carboxymethylcellulose (CMC)) was 106 % of control and the T/C (dose: 1.5 mg/kg/injection, schedule: Q01DX009 (ip), vehicle: carboxymethylcellulose (CMC)) was 97 % of control. For the same compound, the T/C (dose: 3.0 mg/kg/injection, schedule: Q01DX001 (ip), vehicle: carboxymethylcellulose (CMC)) was 108 % of control, the T/C (dose: 3.5 mg/kg/injection, schedule: Q01DX009 (ip), vehicle: carboxymethylcellulose (CMC)) was 118 % of control and 124 % of control and the T/C (dose: 5.3 mg/kg/injection, schedule: Q01DX009 (ip), vehicle: carboxymethylcellulose (CMC)) was 165 % of control. For the same compound, the T/C (dose: 6.0 mg/kg/injection, schedule: Q01DX001 (ip), vehicle: carboxymethylcellulose (CMC)) was 117 % of control, the T/C (dose: 8.0 mg/kg/injection, schedule: Q01DX009 (ip), vehicle: carboxymethylcellulose (CMC)) was 166 % of control and 236 % of control and the T/C (dose: 12.0 mg/kg/injection, schedule: Q01DX009 (ip), vehicle: carboxymethylcellulose (CMC)) was 214 % of control and 247 % of control. The T/C (dose: 18.0 mg/kg/injection, schedule: Q01DX009 (ip), vehicle: carboxymethylcellulose (CMC)) was 116 % of control and 123 % of control and the T/C [15] was 100 % of control.

`O=[N+]([O-])c1ccc2c3c(cccc13)CC2` was tested, and the T/C [1] was 102 % of control, the T/C [2] was 96 % of control and the T/C [3] was 90 % of control.
